From patent US7557133B2, “Caspase inhibitors containing isoxazoline ring” (LG Life Sciences Ltd., priority 2003, dated 2009)
Marks after values point to notes of the source that are not given here.

What was measured:
caspase-9 = target: T1, caspase-9 (Homo sapiens, UniProt P55211); test: Caspase-9 inhibitory effect (fluorescent substrate AcLEHD-AFC); format: biochemical; settings: pH 7.5; 25° C., 150 μM AcLEHD-AFC, 200 nM caspase-9; read-out: Caspase-9 Kobs/[I] (converted)
T1 construct: p10 and p20 subunits (Thornberry, N. A. et al, Nature, 1992, 356, 768) were expressed in E. coli; made in house; host or cells: E. coli
T1 sequence (P55211 1-315 limits assumed): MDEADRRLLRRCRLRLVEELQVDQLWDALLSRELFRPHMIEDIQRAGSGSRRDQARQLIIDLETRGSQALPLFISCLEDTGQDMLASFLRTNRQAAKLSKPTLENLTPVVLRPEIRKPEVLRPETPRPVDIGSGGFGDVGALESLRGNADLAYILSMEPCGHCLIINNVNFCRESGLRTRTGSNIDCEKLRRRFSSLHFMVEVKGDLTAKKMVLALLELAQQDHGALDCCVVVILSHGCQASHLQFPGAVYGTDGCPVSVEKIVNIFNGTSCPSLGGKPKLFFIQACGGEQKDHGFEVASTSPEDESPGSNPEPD
T1 sequence (P55211 331-416 limits assumed): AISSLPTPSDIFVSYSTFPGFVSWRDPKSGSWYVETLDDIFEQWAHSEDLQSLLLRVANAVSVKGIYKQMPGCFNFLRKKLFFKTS
Protocol: Caspase-1 and caspase-8 known as cysteine proteases in the form of α2β2 were expressed, purified, and activated by modifying a method known in Thornberry, N. A. et al, Nature, 1992, 356, 768. Thornberry, N. A. Methods in Enzymology, 1994, 244, 615. Walker, N. P. C. et al. Cell, 1994, 78, 343, and caspase-9 was also purified by a similar method, and the inhibitory activity against them was tested. Briefly describing, p10 and p20 subunits (Thornberry, N. A. et al, Nature, 1992, 356, 768) were expressed in E. coli and purified by nickel column and anionic exchange chromatography to give caspase-1, caspase-8 and caspase-9. The fluorescent substrate AcYVAD-AFC for thus obtained caspase-1, AcDEVD-AFC for caspase-8, and AcLEHD-AFC for caspase-9 were used for determining specific activity of the synthesized inhibitors. […] The inhibitory constants Ki and Kobs of the inhibitors were determined by measuring the reaction velocity with the time lapse using a fluorescent spectrometer and by obtaining the initial rate constant. Ki was calculated from the Lineweaver Burk Plot, and Kobs from the following Equation 1. […]

hepatic fibrosis = test: Inhibitory effect against hepatic fibrosis in SD rats (biliary duct ligation, Sirius red staining); format: in vivo, rat; settings: BDL rats, 3 or 10 mg/kg orally twice a day for 1 week
Protocol: Male Spargue-Dawley rats (6 weeks, Korea Biolink) were kept under the conditions of 22 °C, 55% of relative humidity, and light-darkness cycle of 12 hours. Food and water were supplied ad libitum. For the ligation of biliary duct, the rats were anesthetized by inhalation of 1% halothane, abdomen of the rats were cut open, the distal and proximal biliary ducts were ligated, the part between the ligation sites were cut, 2 ml of saline was injected, and sutured. Test compound (Iii) was orally administered in a dosage of 3 mg/kg or 10 mg/kg twice a day. That is, the compound was dissolved in a cosolvent (PEG400:ethanol:Tween80=15:7.5:2.5), diluted with phosphate buffer (pH 7.4) by five times, and administered. To the control group was administered the solution without the test compound. The administration was made for 1 week after 1 week from the ligation of biliary duct. After the administration, the rats were sacrificed. The livers were fixed by 10% neutral formalin and a paraffin section of 5 μm thickness was prepared and stained by 0.1% Sirius red (Direct red 80, Sigma). The tissue section was investigated by an optical microscope to observe the collagen fibers stained in red, and the results are represented in FIG. 1.

[1] = test system: LPS-induced acute hepatitis; test: Therapeutic effect for LPS-induced acute hepatitis in mouse (plasma ALT); format: in vivo
Protocol: Female Balb/c mice (6 weeks, Charles River Laboratory, Osaka, Japan) were kept under the conditions of 22 °C, 55% of relative humidity, and light-darkness cycle of 12 hours. Food and water were supplied ad libitum. In pyrogen-free saline were dissolved LPS (lipopolysaccaride) and D-galactosamine in concentrations of 0.4 mg/ml and 280 mg/ml, respectively, and their 1:1 mixture was injected to mice in the amount of 5 ml/kg. Immediately after the injection of LPS and D-galactosamine, vehicle (a mixture of PEG400:ethanol:Tween80=15:7.5:2.5 was diluted by five times with saline) wherein the test compound is dissolved or the vehicle alone was intraperitoneally injected into the mice. After 8 hours from the drug injection, blood samples were obtained from their hearts.
The plasma ALT activity was determined for the blood samples obtained in Step 1 using ALT assay kit (Asan Pharm. Co., Seoul, Korea) according to the manufacturer's instruction.

rheumatic arthritis = test: Therapeutic effect for rheumatic arthritis in rats (type II collagen); format: in vivo, rat
Protocol: Female Lewis rats (7 weeks, Charles River, Japan) were kept under the conditions of 22 °C, 55% of relative humidity, and light-darkness cycle of 12 hours. Food and water were supplied ad libitum. Type II collagen (bovine) was dissolved in 0.05M acetic acid in a concentration of 2 mg/ml at 4[…], and the same amount of Complete Freund's adjuvant was added to emulsify the solution at 4[…]. 0.1 ml of thus emulsified solution was subcutaneously injected into the rattail of the Lewis rats. After 7 days, the emulsified solution was injected again in the same manner. From the date on which the second emulsified solution was injected, vehicle (a mixture of PEG400:ethanol:Tween80=15:7.5:2.5 was diluted by ten times with phosphate buffer) wherein the test compound is dissolved or the vehicle alone was orally administered into the rats every day. On Day 14 from the first injection of the collagen-containing emulsified solution, the right rear foot volume was measured again by plethysmometer (see Table 4). The edema inhibition (%) was determined by the following Equation 3. […]
Further, p-value was calculated by Student t-test from the increased foot volume on Day 14 to confirm the significance.

kinact/KI (caspase-9): 3330 M⁻¹ s⁻¹
Compound: CC(C)[C@@]1(C(=O)NC(CC(=O)O)C(=O)CF)CC(c2nccc3ccccc23)=NO1 (stereo partly drawn) [Iii, 5-Fluoro-3-({[(5R)-5-isopropyl-3-(1-isoquinolinyl)-4,5-dihydro-5-isoxazolyl]carbonyl}amino)-4-oxopentanoic acid]
fibrosis by Sirius Red staining (hepatic fibrosis): almost no fibrosis | increased activity against LPS-induced acute hepatitis model (mouse) compared with LB84068MP ([1]; in vivo): about 100 times | ED50 ([1]; ip, LPS and D-galactosamine, intraperitoneally injected, plasma ALT after 8 hours, read-out: ED50 (LPS + Gal)): 0.01 mg/kg | Foot volume (ml) Day 14 Average (rheumatic arthritis; 10 mg/kg oral every day, Day 14): 1.394* ml | Foot volume (ml) Day 0 Average (rheumatic arthritis; 10 mg/kg oral group, Day 0): 1.134 mL
